In data set [1] the test system is retinal hypoxia, laser-induced retinal vein occlusion (RVO) mice. Briefly: Imaging of retinal hypoxia in the mouse RVO model. The class given is in vivo. The settings on record: for pattern of retinal hypoxia image in RVO retina: HYPDX-4-dependent imaging versus pimonidazole-adduct immunostaining, 60 mg/kg i.p. As to the method:
Laser-induced retinal vein occlusion was performed as previously described.^31 Briefly, C57BL/6 female mice were anesthetized by intraperitoneal injection of ketamine/xylazine and the eyes were dilated using 1% tropicamide. A phosphate buffered solution of 39.31 mM rose bengal (4,5,6,7-tetrachloro-2′,4′,5′,7′-tetraiodo-fluorescein disodium salt, certified purity, 95%; Sigma, St. Louis, Mo.) was sterilized by passage through a 0.22-μm filter, and tail vein injected at a dose of 40 mg/kg. An argon laser photocoagulator (green light) mounted on a slit-lamp (Space Coast Laser Inc. Palm Bay, Fla.) was used to create retinal vein-occlusion (50-μm spot size, 1-second duration, 50 mW). Three laser applications were required to completely stop the blood flow as determined by observing the fundus image with a slit-lamp microscope. In each fundus, only one or two veins was/were photocoagulated to create retinal ischemia. Two hours post-RVO, mice were divided into two groups and received intraperitoneal injection of the HYPDX-4 (60 mg/kg body weight) or pimonidazole hydrochloride (60 mg/kg body weight). Twenty-two hours post-injection of HYPDX-4, in vivo HYPDX-4 dependent fluorescence imaging was performed. The mice were anesthetized with ketamine/xylazine, dilated with 1% tropicamide, and placed on a warm platform; TRITC-Dextran 500 (Sigma, St. Louis, Mo.) was injected systemically at a dose of 20 mg/kg; and fluorescent and bright field fundus images were acquired using the Micron IV retinal-imaging system. Mice were sacrificed, enucleated and the globes were fixed in 10% NBF. HYPDX-4-dependent fluorescence was imaged ex vivo as previously described in the OIR section. For the pimonidazole hydrochloride-injected group, the animals were sacrificed one hour after injection, enucleated and the globes were fixed in 10% NBF. The retinas were processes and ex vivo images were captured as described above for mouse OIR.

The test system of data set [2] is human Müller cells (MIO-M1). Briefly: Pimonidazole-adduct immunodetection of hypoxia in MIO-M1 cells. The class given is cell-based. The settings on record: MIO-M1, 100 μM, 4 hours. As to the method: (§1) ARPE-19 cells were cultured in DMEM/F12 supplemented with 10% Fetal Bovine Serum, 1× GlutaMAX, and 1× Gentamicin/Amphotericin B. MIO-M1 and R28 cells were cultured in low glucose DMEM supplemented with 10% Fetal Bovine Serum, 1× GlutaMAX, and 1× Penicillin-Streptomycin. Cells were maintained in a humidified environment with 5% CO2 at 37° C. unless otherwise noted. The cells were cultured in 96 microwell plates, with HYPDX-4 concentrations ranging from 10 to 100 μM in complete medium, or 100 μM pimonidazole hydrochloride in complete medium. To establish a hypoxic environment, the cells were placed into a humidified hypoxic chamber and flushed with a mixture of 95% N2 and 5% CO2, at a flow rate of 20 L/min for 5 min according to manufacturer instructions. The chamber was clamped and placed at 37° C. for the duration of the treatment. The oxygen level was monitored using the Traceable™ Dissolved Oxygen Meter Pen (Fisher Scientific; Pittsburg, Pa.). To confirm induction of hypoxia, cells were treated with 100 μM pimonidazole hydrochloride diluted in complete medium, subjected to hypoxia or normoxia for 4 hours and immunostained for pimonidazole-adducts according to manufacturer's protocol.

The subject of data set [3] is retinal hypoxia, oxygen-induced retinopathy (OIR) mice. Briefly: Imaging of retinal hypoxia in the mouse OIR model. It is filed as in vivo. The protocol:
Mouse pups and their dams were placed in 75% oxygen from P7 to P12 according to the OIR oxygen treatment protocol.^27 On P12, litters were removed to room air and after 2 hours, HYPDX-4 (60 mg/kg in PBS) was administered by intraperitoneal injection. Twenty-four hours post-injection, in vivo HYPDX-4-dependent fluorescence imaging was performed. Briefly, mice were anesthetized with ketamine/xylazine, eyes were dilated with 1% tropicamide and placed on a warm platform, and fluorescent and bright field fundus images were acquired using the Micron IV retinal-imaging system (Phoenix Research Laboratories; Pleasanton, Calif.). Then, ex vivo imaging of HYPDX-4 dependent fluorescence was performed. The mice were sacrificed, enucleated, and the globes were fixed in 10% neutral buffered formalin (NBF). Retinas were dissected and stained directly with Alexa Fluor 647-conjugated isolectin B4 then flat-mounted on a microscope slide with Prolong Gold mounting medium (Life Technologies, Grand Island, N.Y.). Images were captured using an epifluorescence ‘Nikon Eclipse Ti-E’ inverted microscope (Melville, N.Y.).
Some mice received intraperitoneal injections of pimonidazole hydrochloride at a concentration of 60 mg/kg body weight two hours after removal to the room air; they were sacrificed and enucleated one hour later. The globes were fixed in 10% NBF for 2 hours; retinas were dissected and washed with tris-buffered saline (TBS), then they were blocked/permeabilized in 10% donkey serum with 1% Triton X-100/0.05% Tween 20 in TBS for 6 hours, and stained with an antibody against pimonidazole-adducts followed by the secondary anti-rabbit IgG conjugated to Alexa Fluor 647- and Alexa Fluor 488-conjugated isolectin B4. The retinas were mounted on microscope slides with Prolong Gold mounting medium. Ex vivo images were captured using an epifluorescence ‘Nikon Eclipse Ti-E’ inverted microscope.

A further data set has as its system ARPE-19 cells. Briefly: In vitro hypoxia-induced HYPDX-4-dependent fluorescence assay, ARPE-19 cells. The class given is cell-based, human. The following applies: ARPE-19, 0.1% oxygen, 10 μM to 100 μM. The protocol:
as §1, with “To confirm induction of hypoxia, cells were treated with 100 μM pimonidazole hydrochloride diluted in complete medium, subjected to hypoxia or normoxia for 4 hours and immunostained for pimonidazole-adducts according to manufacturer's protocol.” left out
(§2) ARPE-19, MIO-M1 were seeded at 20,000 and R28 at 15,000 cells per well, respectively, in a 96-well black plate with a clear bottom. […] Fluorescence intensity was measured ([…]: 490 nm, Emission: 520 nm) using a microplate reader (Biotek; Winooski, Vt.).

Data set [4] is described as follows: Solubility in aqueous solvents, buffers and cell-culture medium. The settings on record: neat water or saline, PBS, DMEM with 10% FBS; read-out: soluble at a concentration. The class given is physicochemical.
Data set [5] concerns R28 cells. Briefly: In vitro imaging of R28 cells using HYPDX-4. The class given is cell-based, rat. The protocol: R28 cells were seeded at a density of 45,000 cells per well in 3 wells of 4-well chamber slides. When cells were 90% confluent, 2 wells were treated with HYPDX-4 in complete medium, and one well was treated with pimonidazole hydrochloride diluted in complete medium. The cells were cultured in hypoxia or normoxia for 4 hours. Cells were washed 3 times with HBSS, fixed with 10% neutral buffered formalin (NBF) for 10 minutes at room temperature, washed 3 times with TBS and mounted with Prolong Gold with DAPI mounting media. Pimonidazole-adducts were immunostained according to manufacturer's protocol. HYPDX-4 dependent fluorescence images were taken using an epifluorescence microscope.

The subject of another data set is retina of RA mice. Briefly: Electroretinography (ERG) measurements. The following applies: 100 mg/kg systemic, dark-adapted mice, 7 days post administration, various flash intensities. The class given is in vivo, mouse. The protocol:
ERG measurements were performed according to previously published methods.^32,33 Briefly, ERG analysis was performed on mice injected with HYPDX-4 (100 mg/kg) at one week post-injection. Animals were dark adapted overnight, anesthetized with ketamine/xylazine, dilated with 1% tropicamide, and placed on a warm platform within the Ganzfeld dome of a Diagnosys LLC Espion Electrophysiology system (Lowell, Mass., USA). Mice were exposed to flashes of light ranging from −4 to 2 log cd·s/m^2 and the amplitudes of a-wave and b-wave were measured from baseline to peak. The amplitude of the a-wave and b-wave were plotted as a function of luminance.

The subject of data set [6] is retinal cross sections from RA mice. Briefly: TUNEL assay in retinal cross sections. It is filed as in vivo, mouse. The following applies: retinal cross sections from treated mice, DNase I positive control. As to the method: TUNEL assays were performed using Click-iT in situ apoptosis detection kit (Life Technology, USA). The mouse eyes were enucleated and fixed by immersing in 10% NBF for 25 minutes at 4° C. Then, they were fresh frozen in 30% sucrose and embedded in TissueTec OCT for cryosectioning (7 μm sections). The retinal cross-sections were then stained for fragmented DNA by incorporating alkyne-modified EdUTP nucleotide followed by detection with Alexafluor 647 azide in apoptotic cells. Retinal cross-sections were treated with DNase I as the positive control.

Data set [7] is described as follows: In vitro stability (photostability) in solution, kinetic fluorescence. It is filed as physicochemical. The following applies: phosphate buffer, 100 nM, 37° C., ex 490 nm / em 520 nm. As to the method: HYPDX-4 was dissolved in phosphate buffer at a concentration of 100 nM and fluorescence was monitored at excitation maximum 490 nm and emission at 520 nm.
Data set [8] has as its system MIO-M1 cells. Briefly: Cell viability assay (BrdU incorporation), MIO-M1 cells. The class given is cell-based, human. The following applies: MIO-M1, 0-100 μM, 24 h. As to the method: (§3) Retinal cell-lines were treated with HYPDX-4 (100 μM) and the viability was measured using the bromodeoxyUridine (BrdU) incorporation assay according to the manufacturers protocol. Briefly, retinal cells were seeded in a 96-well plate for twenty four hours and serum starved for 6 hours. Then, cells were treated with HYPDX-4 and vehicle controls diluted in complete media and allowed to incubate for 24 h. Four hours prior to the end of the incubation, BrdU was added at a concentration of 10 μM and incorporation of BrdU was quantified by ELISA with the BrdU cell viability ELISA kit (Exalpha Biologicals; Shirley, Mass.).

Data set [9] concerns R28 cells. Briefly: In vitro hypoxia-induced HYPDX-4-dependent fluorescence assay, R28 cells. It is filed as cell-based, rat. The protocol: as §1, with “To confirm induction of hypoxia, cells were treated with 100 μM pimonidazole hydrochloride diluted in complete medium, subjected to hypoxia or normoxia for 4 hours and immunostained for pimonidazole-adducts according to manufacturer's protocol.” left out
as §2

Data set [10] relates to R28 cells. Briefly: Cell viability assay (BrdU incorporation), R28 cells. It is filed as cell-based, rat. The settings on record: R28, 0-100 μM, 24 h. The protocol:
as §3
For orientation: Uptake of a labelled nucleoside into DNA is a usual measure of proliferation.

In data set [11] the test system is MIO-M1 cells. Briefly: In vitro hypoxia-induced HYPDX-4-dependent fluorescence assay, MIO-M1 cells. It is filed as cell-based, human. The settings on record: MIO-M1, 0.1% oxygen, 10 μM to 100 μM. The protocol: as §1, with “To confirm induction of hypoxia, cells were treated with 100 μM pimonidazole hydrochloride diluted in complete medium, subjected to hypoxia or normoxia for 4 hours and immunostained for pimonidazole-adducts according to manufacturer's protocol.” left out
as §2

Two compounds from patent publication US10695446B2, “Composition and method for detecting hypoxia” (Vanderbilt University, priority 2015, dated 2020) can be followed below.

Where a name gives a salt, the structure may show the parent alone.

Experimental for physchem: A mixture of Octanol (500 uL) and water (500 uL) was added to HYPDX-4 (173 μg), or Pimonidazole Free base (742 μg) or Pimonidazole HCl (1 mL, 50 mg/mL) in an eppendorf tube and gently mixed in a rotator for 2 days. The aqueous and octanol layers were separated and the Optical Density (OD) was measured in microplate spectrophotometer instrument. The amount of HYPDX-4, Pimonidazole Free base and Pimonidazole HCl was calculated from the standard curve.

As for `O=[N+]([O-])c1nccn1CC(O)CN1CCCCC1` (stereo not drawn) [Pimonidazole HCl, reference compound], in data set [1], the “pattern of retinal hypoxia image in RVO retina” value is “patchy”. For the same compound, in “physchem”, the logP (commonly a log measure of how a compound divides between an organic and an aqueous phase) at 2 days is -2.06. Further, in [2] (hypoxia), the “pimonidazole-adduct fluorescence, hypoxic cells” value is given as “Significant fluorescence enhancement”. Also, in data set [2] (normoxia), the “pimonidazole-adduct fluorescence, normoxic cells” value is recorded as “minimal fluorescence signal”. In data set [3] (60 mg/kg i.p., ex vivo, sacrificed one hour later), the “pimonidazole immunostaining of retinal hypoxia in OIR pups” value is listed as “confirmed”.
On to `CCN1/C(=C/C=C/C=C/C2=[N+](CCCCS(=O)(=O)[O-])c3ccc4ccccc4c3C2(C)C)C(C)(C)c2cc(CC(=O)NCC3CCN(CC(O)Cn4ccnc4[N+](=O)[O-])CC3)ccc21` (stereo not drawn) [HYPDX-4], for which the “HYPDX-4 dependent fluorescence, dose dependence” value was “optimal signal to noise ratios at the 100 μM dose” in the data set with ARPE-19 cells; “optimal signal to noise ratios at the 100 μM dose” in the data set on R28 cells [9] (R28, 0.1% oxygen, 10 μM to 100 μM); “optimal signal to noise ratios at the 100 μM dose” with MIO-M1 cells [11]. The solubility in data set [4] was not below 100 µM. Further, in the data set on R28 cells [5] (R28, 100 μM, 0.1% oxygen, 4 hours), the “cellular fluorescence imaging, hypoxic cells” value is on record as “Hypoxia-specific, HYPDX-4-dependent fluorescence activity”. Also, the “cellular fluorescence imaging, normoxic cells” value in the data set with R28 cells [5] (R28, normoxia) is listed as “Minimal”. Moreover, the “HYPDX-4-dependent fluorescence in RVO retina” value in [1] (60 mg/kg i.p. two hours after occlusion, imaging 22 hours post-injection) is “detected downstream and laterally from the occlusion”. In data set [1], the “pattern of retinal hypoxia image in RVO retina” value was “more confluent image of retinal hypoxia”. Further, in the data set with retina of RA mice, the “ERG mean a-wave amplitudes versus vehicle (PBS) and sodium fluorescein” value is reported as “no significant changes in mean a-wave amplitudes”. For the same compound, the “ERG mean b-wave amplitudes versus vehicle (PBS) and sodium fluorescein” value in the data set on retina of RA mice is on record as “no significant changes in mean b-wave amplitudes”. Further, the logP at 2 days in the data set “physchem” is -2.58. In data set [6], the “retinal cell apoptosis (TUNEL)” value was “No apoptosis was observed”. The “photostability in solution, duration” value in data set [7] is “at least 24 hours”. Further, the “cell viability (BrdU incorporation)” value with MIO-M1 cells [8] and in the data set on R28 cells [10] was “did not affect cell viability” each time. The “HYPDX-4-dependent fluorescence versus oxygen concentration” value with R28 cells [9] (100 μM, oxygen 0.1% to 20.9%, 4 hours) is reported as “maximal at 0.1% oxygen”. Besides, in [3] (OIR pups, 60 mg/kg i.p. on P12, imaging 24 hours post-injection, central avascular retina), the “HYPDX-4-dependent fluorescence in OIR retina” value was “detected in vivo as well as ex vivo”. Besides, the “HYPDX-4 dependent fluorescence in room air control retina” value in data set [3] (age matched RA (P13) control pups, same treatment) is on record as “undetectable”. Besides, in [3] (ex vivo retinal transverse sections from OIR pups), the “retinal layers showing HYPDX-4-dependent fluorescence (hypoxia), cross sections” value is “inner plexiform and inner nuclear layers”.
